Values of other authors, collected in patent US7705031B2 (priority 2003, dated 2010).

Assays:
neuropathic pain = conditions: human, in vivo
NaV1.3 = NaV1.3 (Homo sapiens, UniProt Q9NY46); conditions: read-out: TTX IC50
NaV1.3, sequence (Q9NY46 whole entry, looked up): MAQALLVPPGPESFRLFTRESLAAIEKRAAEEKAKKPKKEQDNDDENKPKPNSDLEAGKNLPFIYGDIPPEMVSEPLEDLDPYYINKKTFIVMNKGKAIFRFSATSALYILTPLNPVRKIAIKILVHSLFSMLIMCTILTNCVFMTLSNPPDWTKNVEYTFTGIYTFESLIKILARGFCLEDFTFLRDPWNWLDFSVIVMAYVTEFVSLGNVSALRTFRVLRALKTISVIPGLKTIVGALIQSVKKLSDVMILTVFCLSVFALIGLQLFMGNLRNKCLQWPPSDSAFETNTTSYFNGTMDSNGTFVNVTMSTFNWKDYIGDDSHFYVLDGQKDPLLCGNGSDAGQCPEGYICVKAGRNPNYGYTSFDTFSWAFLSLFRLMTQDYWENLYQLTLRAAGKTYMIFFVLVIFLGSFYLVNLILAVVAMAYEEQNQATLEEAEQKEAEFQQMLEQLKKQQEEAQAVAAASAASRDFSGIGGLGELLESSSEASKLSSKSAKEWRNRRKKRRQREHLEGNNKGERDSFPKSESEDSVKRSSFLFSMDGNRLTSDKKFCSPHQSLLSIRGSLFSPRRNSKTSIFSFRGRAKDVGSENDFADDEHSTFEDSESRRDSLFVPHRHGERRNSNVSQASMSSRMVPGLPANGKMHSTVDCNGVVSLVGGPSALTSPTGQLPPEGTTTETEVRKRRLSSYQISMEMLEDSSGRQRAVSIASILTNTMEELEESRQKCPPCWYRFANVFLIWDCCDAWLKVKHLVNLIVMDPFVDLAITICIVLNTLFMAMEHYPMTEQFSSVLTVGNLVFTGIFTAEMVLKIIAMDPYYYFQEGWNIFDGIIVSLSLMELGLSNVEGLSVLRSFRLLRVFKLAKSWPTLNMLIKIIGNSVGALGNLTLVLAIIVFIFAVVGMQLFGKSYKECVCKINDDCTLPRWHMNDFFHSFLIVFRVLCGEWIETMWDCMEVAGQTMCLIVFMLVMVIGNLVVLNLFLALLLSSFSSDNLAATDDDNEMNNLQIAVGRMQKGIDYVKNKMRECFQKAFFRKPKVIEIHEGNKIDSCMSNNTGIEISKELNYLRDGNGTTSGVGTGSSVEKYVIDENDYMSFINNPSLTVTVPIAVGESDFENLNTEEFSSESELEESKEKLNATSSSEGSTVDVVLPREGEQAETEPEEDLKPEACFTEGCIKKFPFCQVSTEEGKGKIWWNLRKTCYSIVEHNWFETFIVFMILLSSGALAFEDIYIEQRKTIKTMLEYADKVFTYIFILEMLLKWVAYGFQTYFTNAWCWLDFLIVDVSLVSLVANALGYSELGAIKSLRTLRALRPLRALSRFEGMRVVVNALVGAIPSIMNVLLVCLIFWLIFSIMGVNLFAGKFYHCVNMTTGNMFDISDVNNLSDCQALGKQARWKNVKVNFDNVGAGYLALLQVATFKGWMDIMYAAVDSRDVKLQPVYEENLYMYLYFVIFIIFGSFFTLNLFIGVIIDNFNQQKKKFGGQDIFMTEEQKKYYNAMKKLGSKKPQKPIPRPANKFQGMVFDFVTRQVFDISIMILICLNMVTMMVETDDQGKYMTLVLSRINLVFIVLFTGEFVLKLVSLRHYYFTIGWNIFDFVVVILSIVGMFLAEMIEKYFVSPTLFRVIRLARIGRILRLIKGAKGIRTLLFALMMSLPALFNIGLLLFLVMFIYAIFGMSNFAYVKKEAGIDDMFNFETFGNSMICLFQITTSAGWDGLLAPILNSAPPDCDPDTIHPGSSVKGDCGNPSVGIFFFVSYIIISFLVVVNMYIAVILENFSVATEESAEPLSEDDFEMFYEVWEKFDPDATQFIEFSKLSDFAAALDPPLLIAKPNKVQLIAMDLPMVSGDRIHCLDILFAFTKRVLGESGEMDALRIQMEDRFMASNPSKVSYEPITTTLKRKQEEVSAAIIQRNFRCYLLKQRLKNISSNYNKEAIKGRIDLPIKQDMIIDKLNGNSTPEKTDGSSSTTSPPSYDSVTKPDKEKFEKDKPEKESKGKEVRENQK

SMILES: NCC1(CC(=O)O)CCCCC1 [Gabapentin]
- share of patients in whom the drug works (neuropathic pain): 60%

SMILES: NC1=N[C@H](O)[C@H]2[C@H]3O[C@]4(O)O[C@@H]([C@@H](O)[C@@]2(N1)[C@@H]4O)[C@]3(O)CO [TTX, tetrodotoxin]
- IC50 (NaV1.3): 15 nM
